The test system of test [1] is Blumeria graminis f. sp. tritici. The experiment in a line: Test on the preventive effect against wheat powdery mildew. The format is in vivo. The conditions noted are these: 168 h, test solution A 500 ppm, 5 ml per pot, wheat 1.3-leaf stage, 7 days after inoculation. In outline: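 Compounds formulated as 20 wt % emulsifiable concentrates and diluted with water to 500 ppm; 5 ml per pot applied to wheat (Norin 61) at the 1.3-leaf stage. Conidia inoculated one day later in a 20° C greenhouse; lesion proportion scored after 7 days as control value, in duplicate.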

Test [2] deals with Barber pole worm (Haemonchus contortus). Put plainly: Insecticidal test against Barber pole worm (eggs, 96 well plate). The conditions noted are these: 96 h, test solution B 100 ppm, 10 μl per well, 25° C. dark, 4 days after treatment, read-out: efficacy (unhatched eggs and inactive larvae relative to non-treated). The format is in vivo. The method in brief: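 Haemonchus contortus eggs (about 10 per 3 μl) were placed on 1% potato dextrose agar in wells. Compound diluted from 1 wt % DMSO solutions to 100 ppm in water was added, and plates were held at 25° C. in the dark.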

In the next test the test system is Asperaillus niger. The experiment in a line: Test on the antifungal activity against Asperaillus niger. The format is cell-based. The settings on record: 48 h; test solution B 100 ppm, 10 μl per well, 96 well plate, 25° C. dark, 2 days after treatment; read-out: efficacy (flora area ratio relative to non-treated well). The method in brief:
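Compounds at 100 ppm (diluted from DMSO stock in water) were added to potato dextrose 1% agar wells seeded with Aspergillus niger spores (10 spores/3 μl). Plates held at 25 °C in dark for 2 days. Efficacy (%) calculated from flora area ratio versus non-treated wells.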

For a further test, the system named is Sclerotinia sclerotiorum. Put plainly: Test on the preventive effect against cucumber stem rot. The conditions noted are these: 48 h, test solution A 500 ppm, 5 ml per pot, agar block inoculation, 2 days at 20° C. The format is in vivo. In outline:
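Cucumber (Sagami Hanjiro) at cotyledon stage sprayed with 5 ml/pot of 500 ppm compound from a 20 wt % emulsifiable concentrate, air-dried, then inoculated on seed leaves with agar blocks of S. sclerotiorum grown on PDA. Kept humid at 20° C for 2 days; lesion proportion scored and control value calculated, in duplicate.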

The next test relates to Botrytis cinerea. Put plainly: Test on the preventive effect against cucumber gray mold (mycelium inoculation). The format is in vivo. The conditions noted are these: 48 h, test solution A 500 ppm, 5 ml per pot, cucumber cotyledon, agar block inoculation, 2 days at 20° C. The method in brief: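 Cucumber cotyledons (Sagami Hanjiro) were sprayed with 5 ml per pot of a 500 ppm dilution of a 20 wt % emulsifiable concentrate. Next day, mycelial agar plugs of Botrytis cinerea were placed on cotyledons, held humid at 20° C for 2 days. Lesion proportion gave the control value; duplicate.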

Test [3] has as its system Southern root-knot nematode (Meloidogyne incoqnita). Put plainly: Insecticidal test against Southern root-knot nematode (eggs, 96 well plate). The format is in vivo. The conditions noted are these: 96 h, test solution B 100 ppm, 10 μl per well, 25° C. dark, 4 days after treatment, read-out: efficacy (unhatched eggs + inactive larvae relative to non-treated).

A value given as a limit tells only on which side of the number the result lay.

In the case of `CC(CNC(=O)c1cn(C)nc1C(F)F)c1ncc(C#CC2CC2)cc1Cl` (stereo not drawn) [8-007], the pest or weed control at 500 µg/mL (in test [1]; in the test with Sclerotinia sclerotiorum; in the test with Botrytis cinerea) was at least 70% throughout. Also, the pest or weed control at 100 µg/mL in test [2] and in test [3] was at least 50% each time. Further, the inhibition of growth at 100 µg/mL in the test on Asperaillus niger is at least 50%.

Consider `COC(CNC(=O)c1cn(C)nc1C(F)F)c1ncc(C#CC2CC2)cc1Cl` (stereo not drawn) [8-019], for which the pest or weed control at 500 µg/mL (in test [1]; in the test on Sclerotinia sclerotiorum; in the test on Botrytis cinerea) was at least 70% in each case. The pest or weed control at 100 µg/mL in test [2] and in test [3] was at least 50% in each case. In addition, the inhibition of growth at 100 µg/mL in the test with Asperaillus niger is at least 50%.

Take `C=C(CNC(=O)c1ccccc1C(F)(F)F)c1ncc(C#CC)cc1Cl` [1-012, N-[2-[3-chloro-5-(1-propynyl)pyridin-2-yl]-2-propenyl]-2-(trifluoromethyl)benzamide]: the pest or weed control at 500 µg/mL (in test [1]; with Sclerotinia sclerotiorum; in the test on Botrytis cinerea) was at least 70% each time. For the same compound, the pest or weed control at 100 µg/mL in test [2] and in test [3] was at least 50% in each case. For the same compound, the inhibition of growth at 100 µg/mL in the test with Asperaillus niger was at least 50%.

With `CC(C)(CNC(=O)c1ccccc1C(F)(F)F)c1ncc(C#CC2CC2)cc1Cl` [1-008], the pest or weed control at 500 µg/mL (in test [1]; in the test with Sclerotinia sclerotiorum; with Botrytis cinerea) was at least 70% in each case. For the same compound, the pest or weed control at 100 µg/mL in test [2] and in test [3] was at least 50% in each case. Further, in the test with Asperaillus niger, the inhibition of growth at 100 µg/mL was at least 50%.

As to `CC(CNC(=O)c1cccnc1Cl)c1ncc(C#CC2CC2)cc1Cl` (stereo not drawn) [3-005], the pest or weed control at 500 µg/mL (in test [1]; in the test with Sclerotinia sclerotiorum; with Botrytis cinerea) was at least 70% each time. Besides, the pest or weed control at 100 µg/mL in test [2] and in test [3] was at least 50% throughout. In addition, the inhibition of growth at 100 µg/mL with Asperaillus niger was at least 50%.

With `Cn1cc(C(=O)NCC(C)(C)c2ncc(C#CC3CC3)cc2Cl)c(C(F)F)n1` [8-008], the pest or weed control at 500 µg/mL (in test [1]; with Sclerotinia sclerotiorum; in the test with Botrytis cinerea) was at least 70% in each case. Further, the pest or weed control at 100 µg/mL in test [2] and in test [3] was at least 50% throughout. Besides, the inhibition of growth at 100 µg/mL in the test on Asperaillus niger is at least 50%.

As for `C=C(CNC(=O)c1cn(C)nc1C(F)F)c1ncc(C#CC2CC2)cc1Cl` [8-011, N-[2-[3-chloro-5-(cyclopropylethynyl)pyridin-2-yl]-2-propenyl]-3-difluoromethyl-1-methyl-1H-pyrazole-4-carboxamide], the pest or weed control at 500 µg/mL (in test [1]; in the test on Sclerotinia sclerotiorum; in the test on Botrytis cinerea) was at least 70% throughout. Moreover, the pest or weed control at 100 µg/mL in test [2] and in test [3] was at least 50% throughout. Moreover, the inhibition of growth at 100 µg/mL with Asperaillus niger was at least 50%.

As for `O=C(NCCc1ncc(C#CC2CC2)cc1Cl)c1ccccc1C(F)(F)F` [1-002], the pest or weed control at 500 µg/mL (in test [1]; with Sclerotinia sclerotiorum; in the test on Botrytis cinerea) was at least 70% in each case. In addition, the pest or weed control at 100 µg/mL in test [2] and in test [3] was at least 50% in each case. Moreover, the inhibition of growth at 100 µg/mL with Asperaillus niger is at least 50%.

For the compound `CC(C)(C)C#Cc1cnc(CCNC(=O)c2cccnc2C(F)F)c(Cl)c1` [3-002], the pest or weed control at 500 µg/mL (in test [1]; in the test with Sclerotinia sclerotiorum; in the test with Botrytis cinerea) was at least 70% in each case. Moreover, the pest or weed control at 100 µg/mL in test [2] and in test [3] was at least 50% in each case. For the same compound, the inhibition of growth at 100 µg/mL with Asperaillus niger is at least 50%.

Consider `CC(C)(C)C#Cc1cnc(CCNC(=O)c2ccccc2C(F)(F)F)c(Cl)c1` [1-003, N-[2-[3-chloro-5-(3,3-dimethyl-1-butynyl)pyridin-2-yl]ethyl]-2-(trifluoromethyl)benzamide], for which the pest or weed control at 500 µg/mL (in test [1]; with Sclerotinia sclerotiorum; in the test with Botrytis cinerea) was at least 70% in each case. For the same compound, the pest or weed control at 100 µg/mL in test [2] and in test [3] was at least 50% throughout. Further, the inhibition of growth at 100 µg/mL with Asperaillus niger was at least 50%.

`COC(c1ncc(C#CC2CC2)cc1Cl)C(C)NC(=O)c1ccccc1C(F)(F)F` (stereo not drawn) [1-024]: the pest or weed control at 500 µg/mL (in test [1]; in the test on Sclerotinia sclerotiorum; in the test with Botrytis cinerea) was at least 70% each time. For the same compound, the pest or weed control at 100 µg/mL in test [2] and in test [3] was at least 50% in each case. Besides, the inhibition of growth at 100 µg/mL in the test on Asperaillus niger was at least 50%.

As for `COC(c1ncc(C#CC2CC2)cc1Cl)C(C)NC(=O)c1cccnc1C(F)F` (stereo not drawn) [3-021], the pest or weed control at 500 µg/mL (in test [1]; in the test on Sclerotinia sclerotiorum; in the test on Botrytis cinerea) was at least 70% in each case. Also, the pest or weed control at 100 µg/mL in test [2] and in test [3] was at least 50% in each case. Moreover, the inhibition of growth at 100 µg/mL in the test with Asperaillus niger was at least 50%.

Consider `COC(c1ncc(C#CC(C)(C)C)cc1Cl)C(C)NC(=O)c1ccccc1C(F)(F)F` (stereo not drawn) [1-025], for which the pest or weed control at 500 µg/mL (in test [1]; with Sclerotinia sclerotiorum; with Botrytis cinerea) was at least 70% each time. Further, the pest or weed control at 100 µg/mL in test [2] and in test [3] was at least 50% each time. Further, in the test with Asperaillus niger, the inhibition of growth at 100 µg/mL is at least 50%.

With `CC(CNC(=O)c1cccnc1C(F)F)c1ncc(C#CC2CC2)cc1Cl` (stereo not drawn) [3-006], the pest or weed control at 500 µg/mL (in test [1]; in the test on Sclerotinia sclerotiorum; with Botrytis cinerea) was at least 70% each time. Further, the pest or weed control at 100 µg/mL in test [2] and in test [3] was at least 50% in each case. Moreover, in the test with Asperaillus niger, the inhibition of growth at 100 µg/mL was at least 50%.

As for `O=C(NCC(F)(F)c1ncc(C#CC2CC2)cc1Cl)c1cccnc1C(F)F` [3-003, N-[2-[3-chloro-5-(cyclopropylethynyl)pyridin-2-yl]-2,2-difluoroethyl]-2-(difluoromethyl)nicotinamide], the pest or weed control at 500 µg/mL (in test [1]; in the test on Sclerotinia sclerotiorum; with Botrytis cinerea) was at least 70% each time. The pest or weed control at 100 µg/mL in test [2] and in test [3] was at least 50% throughout. Also, the inhibition of growth at 100 µg/mL in the test with Asperaillus niger was at least 50%.
